Measurements reported in patent EP4603105A1, “PHARMACEUTICAL COMPOSITION CONTAINING CYCLIC COMPOUND HAVING SELECTIVE KRAS INHIBITORY EFFECT AGAINST HRAS AND NRAS” (CHUGAI SEIYAKU KABUSHIKI KAISHA, priority 2022, dated 2024).

How the values were obtained:
HRAS wild-type protein = HRAS wild-type protein (Homo sapiens, UniProt P01112); test: Binding to HRAS by surface plasmon resonance (SPR), KD and KD ratio to KRAS; details: ratio of KD for HRAS wild-type protein to KD for KRAS
Procedure, shortened: (§1)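 Affinity is measured by surface plasmon resonance at 30°C against captured, GDP-loaded RAS carrying a biotinylated Avi tag. Compounds are titrated by single-cycle kinetics, and KD comes from a 1:1 fit.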

[1] = biological target: GDP-bound NRAS wild-type protein (Homo sapiens, UniProt P01111); test: Binding to NRAS by surface plasmon resonance (SPR), KD and KD ratio to KRAS; details: ratio of KD for GDP-bound NRAS wild-type protein to KD for KRAS
Procedure, shortened: as §1

[2] = biological target: GDP-bound KRAS wild-type protein (Homo sapiens, UniProt P01116); test: Binding to KRAS by surface plasmon resonance (SPR), dissociation constant KD; details: 1:1 binding model
Procedure, shortened: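 SPR, 30°C: Avi-biotin RAS·GDP captured via Biotin CAPture (~100–300 RU); running buffer HBS pH 7.4, 1 mM DTT, 10 mM MgCl2, 0.01% Tween 20, 10 µM GDP, 4% DMSO. Single-cycle kinetics, 100 µL/min, 75 s injections; 1:1 model → KD.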

[3] = test system: human lung cancer strain NCI-H441; test: NCI-H441 cell proliferation inhibitory activity (CellTiter-Glo, 4 days); format: cell-based; details: NCI-H441 cells, 4 days, read-out: NCl-H441 IC50
Procedure, shortened: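 Readout: […] after the ATP-based reagent. Compound: serial dilutions in dimethyl sulfoxide.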

Sequence of GDP-bound KRAS wild-type protein (P01116 1-188 isoform P01116-2): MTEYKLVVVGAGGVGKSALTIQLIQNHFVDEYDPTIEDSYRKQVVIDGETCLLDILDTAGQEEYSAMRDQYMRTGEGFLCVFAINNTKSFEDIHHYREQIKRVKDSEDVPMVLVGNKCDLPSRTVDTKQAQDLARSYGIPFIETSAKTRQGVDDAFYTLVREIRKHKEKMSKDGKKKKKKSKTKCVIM
Sequence of GDP-bound NRAS wild-type protein (P01111 whole entry): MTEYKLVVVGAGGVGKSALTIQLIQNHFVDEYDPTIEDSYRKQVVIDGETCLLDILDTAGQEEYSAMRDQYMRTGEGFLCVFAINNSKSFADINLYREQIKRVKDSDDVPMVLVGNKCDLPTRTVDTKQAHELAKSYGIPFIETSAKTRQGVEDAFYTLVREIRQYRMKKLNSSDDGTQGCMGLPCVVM
Sequence of HRAS wild-type protein (P01112 whole entry): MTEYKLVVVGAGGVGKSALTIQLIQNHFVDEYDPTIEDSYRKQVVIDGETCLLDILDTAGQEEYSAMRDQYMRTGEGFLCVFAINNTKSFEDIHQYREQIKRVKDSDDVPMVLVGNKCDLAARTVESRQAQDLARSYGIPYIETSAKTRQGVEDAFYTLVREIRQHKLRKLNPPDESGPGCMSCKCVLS

| Structure (SMILES) | Kd [2] | IC50 [3] | HRAS /KRAS (HRAS wild-type protein) | NRAS /KRAS [1] |
| --- | --- | --- | --- | --- |
| CCC[C@H]1C(=O)N[C@H]([C@@H](C)CC)C(=O)N2C[C@@H](OC)C[C@H]2C(=O)N(C)[C@H]2C/C=C\CCN(C2=O)[C@@H](Cc2ccc(C)cc2)C(=O)N(C)CC(=O)N[C@@H](CCc2ccc(C(F)(F)F)c(Cl)c2)C(=O)N2C[C@H](OCC)C[C@H]2C(=O)NC2(CCC2)C(=O)N(C)[C@@H](C2CCCC2)C(=O)N(C)[C@H](C(=O)N(C)C)CC(=O)N1C [PP2552] | 0.28 nM | 30.5 nM | B (a compound having 3 or more and less than 10 is denoted as B) | A (a compound having 10 or more and less than 20 is denoted as A) |
| CCC[C@H]1C(=O)N[C@@H](CC(C)C)C(=O)N2C[C@@H](OC)C[C@H]2C(=O)N(C)[C@H]2C/C=C\CCN(C2=O)[C@@H](Cc2ccc(C)cc2)C(=O)N(C)CC(=O)N[C@@H](CCc2cc(F)c(C(F)(F)F)c(F)c2)C(=O)N2C[C@H](OCC)C[C@H]2C(=O)NC2(CC(C)(C)C2)C(=O)N(C)[C@@H](C2CCCC2)C(=O)N(C)[C@H](C(=O)N(C)C)CC(=O)N1C [PP2553] | 3.4 nM | 121 nM | B (a compound having 3 or more and less than 10 is denoted as B) | A (a compound having 10 or more and less than 20 is denoted as A) |
| CCC[C@H]1C(=O)N[C@@H](CC(C)C)C(=O)N2C[C@@H](OC)C[C@H]2C(=O)N(C)[C@H]2C/C=C\CCN(C2=O)[C@@H](Cc2ccc(C)cc2)C(=O)N(C)CC(=O)N[C@@H](CCc2ccc(C(F)(F)F)c(Cl)c2)C(=O)N2C[C@H](OCC)C[C@H]2C(=O)NC2(CC(C)(C)C2)C(=O)N(C)[C@@H](C2CCCC2)C(=O)N(C)[C@H](C(=O)N(C)C)CC(=O)N1C [PP2555] | 4.1 nM | 212 nM | B (a compound having 3 or more and less than 10 is denoted as B) | A (a compound having 10 or more and less than 20 is denoted as A) |
| CCC[C@H]1C(=O)N[C@@H]([C@@H](C)CC)C(=O)N2C[C@@H](OC)C[C@H]2C(=O)N(C)[C@H]2C/C=C\CCN(C2=O)[C@@H](Cc2ccc(C)cc2)C(=O)N(C)CC(=O)N[C@@H](CCc2cc(F)c(C(F)(F)F)c(F)c2)C(=O)N2C[C@H](OCC)C[C@H]2C(=O)NC2(CC(C)(C)C2)C(=O)N(C)[C@@H](C2CCCC2)C(=O)N(C)[C@H](C(=O)N(C)C)CC(=O)N1C [PP2556] | 0.21 nM | 9.4 nM | B (a compound having 3 or more and less than 10 is denoted as B) | A (a compound having 10 or more and less than 20 is denoted as A) |
| CCC[C@H]1C(=O)N[C@@H]([C@@H](C)CC)C(=O)N(C2CC2)CC(=O)N(C)[C@H]2C/C=C\CCN(C2=O)[C@@H](Cc2ccc(C)cc2)C(=O)N(C)CC(=O)N[C@@H](CCc2cc(F)c(C(F)(F)F)c(F)c2)C(=O)N2C[C@H](OCC)C[C@H]2C(=O)NC2(CC(C)(C)C2)C(=O)N(C)[C@@H](C(CC)CC)C(=O)N(C)[C@H](C(=O)N(C)C)CC(=O)N1C [PP2560] | 1 nM | 46.3 nM | A (a compound having 10 or more and less than 20 is denoted as A) | AA (a compound having 20 or more is denoted as AA) |
| CCC[C@H]1C(=O)N[C@@H]([C@@H](C)CC)C(=O)N(C2CC2)CC(=O)N(C)[C@H]2C/C=C\CCN(C2=O)[C@@H](Cc2ccc(C)cc2)C(=O)N(C)CC(=O)N[C@@H](CCc2cc(F)c(C(F)(F)F)c(F)c2)C(=O)N2C[C@H](OC(C)C)C[C@H]2C(=O)NC2(CC(C)(C)C2)C(=O)N(C)[C@@H](C2CCCC2)C(=O)N(C)[C@H](C(=O)N(C)C)CC(=O)N1C [PP2570] | 0.39 nM | 8.9 nM | A (a compound having 10 or more and less than 20 is denoted as A) | A (a compound having 10 or more and less than 20 is denoted as A) |
| CCC[C@H]1C(=O)N[C@@H]([C@@H](C)CC)C(=O)N(C2CC2)CC(=O)N(C)[C@H]2C/C=C\CCN(C2=O)[C@@H](Cc2ccc(C)cc2)C(=O)N(C)CC(=O)N[C@@H](CCc2ccc(Cl)c(Cl)c2)C(=O)N2C[C@H](OC(C)C)C[C@H]2C(=O)NC2(CC(C)(C)C2)C(=O)N(C)[C@@H](C2CCCC2)C(=O)N(C)[C@H](C(=O)N(C)C)CC(=O)N1C [PP2571] | 1 nM | 76.1 nM | A (a compound having 10 or more and less than 20 is denoted as A) | A (a compound having 10 or more and less than 20 is denoted as A) |

Continued, in another order:

| Kd [2] | IC50 [3] | Structure (SMILES) | HRAS /KRAS (HRAS wild-type protein) | NRAS /KRAS [1] |
| --- | --- | --- | --- | --- |
| 0.91 nM | 103 nM | CCC[C@H]1C(=O)N[C@@H]([C@@H](C)CC)C(=O)N(C2CC2)CC(=O)N(C)[C@H]2C/C=C\CCN(C2=O)[C@@H](Cc2ccc(C)cc2)C(=O)N(C)CC(=O)N[C@@H](CCc2ccc(Cl)c(Cl)c2)C(=O)N2C[C@H](OCC)C[C@H]2C(=O)NC2(CC(C)(C)C2)C(=O)N(C)[C@@H](C2CCCC2)C(=O)N(C)[C@H](C(=O)N(C)C)CC(=O)N1C [PP2559] | A (a compound having 10 or more and less than 20 is denoted as A) | A (a compound having 10 or more and less than 20 is denoted as A) |
| 2.3 nM | 108 nM | CCO[C@@H]1C[C@H]2C(=O)NC3(CC(C)(C)C3)C(=O)N(C)[C@@H](C3CCCC3)C(=O)N(C)[C@H](C(=O)N(C)C)CC(=O)N(C)[C@@H](COC)C(=O)N[C@@H]([C@@H](C)CC)C(=O)N(C3CC3)CC(=O)N(C)[C@H]3C/C=C\CCN(C3=O)[C@@H](CC3CCCCC3)C(=O)N(C)CC(=O)N[C@@H](CCc3ccc(Cl)c(Cl)c3)C(=O)N2C1 [PP2563] | A (a compound having 10 or more and less than 20 is denoted as A) | A (a compound having 10 or more and less than 20 is denoted as A) |
| 7.6 nM | 222 nM | CCO[C@@H]1C[C@H]2C(=O)NC3(CC(C)(C)C3)C(=O)N(C)[C@@H](C(CC)CC)C(=O)N(C)[C@H](C(=O)N(C)C)CC(=O)N(C)[C@@H](COC)C(=O)N[C@@H]([C@@H](C)CC)C(=O)N(C3CC3)CC(=O)N(C)[C@H]3C/C=C\CCN(C3=O)[C@@H](CC3CCCCC3)C(=O)N(C)CC(=O)N[C@@H](CCc3cc(F)c(C(F)(F)F)c(F)c3)C(=O)N2C1 [PP2564] | A (a compound having 10 or more and less than 20 is denoted as A) | A (a compound having 10 or more and less than 20 is denoted as A) |
| 0.57 nM | 17.6 nM | CCC[C@H]1C(=O)N[C@@H]([C@@H](C)CC)C(=O)N(C2CC2)CC(=O)N(C)[C@H]2C/C=C\CCN(C2=O)[C@@H](CC2CCC(F)(F)CC2)C(=O)N(C)CC(=O)N[C@@H](CCc2cc(F)c(C(F)(F)F)c(F)c2)C(=O)N2C[C@H](OCC)C[C@H]2C(=O)NC2(CC(C)(C)C2)C(=O)N(C)[C@@H](C2CCCC2)C(=O)N(C)[C@H](C(=O)N(C)C)CC(=O)N1C [PP2566] | B (a compound having 3 or more and less than 10 is denoted as B) | A (a compound having 10 or more and less than 20 is denoted as A) |
| 1.9 nM | 102 nM | CCC[C@H]1C(=O)N[C@@H]([C@@H](C)CC)C(=O)N(C2CC2)CC(=O)N(C)[C@H]2C/C=C\CCN(C2=O)[C@@H](CC2CCC(F)(F)CC2)C(=O)N(C)CC(=O)N[C@@H](CCc2ccc(Cl)c(Cl)c2)C(=O)N2C[C@H](OCC)C[C@H]2C(=O)NC2(CC(C)(C)C2)C(=O)N(C)[C@@H](C2CCCC2)C(=O)N(C)[C@H](C(=O)N(C)C)CC(=O)N1C [PP2567] | A (a compound having 10 or more and less than 20 is denoted as A) | A (a compound having 10 or more and less than 20 is denoted as A) |
| 1.2 nM | 23.4 nM | CCO[C@@H]1C[C@H]2C(=O)NC3(CC(C)(C)C3)C(=O)N(C)[C@@H](C(CC)CC)C(=O)N(C)[C@H](C(=O)N(C)C)CC(=O)N(C)[C@@H](COC)C(=O)N[C@@H]([C@@H](C)CC)C(=O)N(C3CC3)CC(=O)N(C)[C@H]3C/C=C\CCN(C3=O)[C@@H](CC3CCC(F)(F)CC3)C(=O)N(C)CC(=O)N[C@@H](CCc3cc(F)c(C(F)(F)F)c(F)c3)C(=O)N2C1 [PP2568] | B (a compound having 3 or more and less than 10 is denoted as B) | A (a compound having 10 or more and less than 20 is denoted as A) |
| 2.8 nM | 185 nM | CCO[C@@H]1C[C@H]2C(=O)NC3(CC(C)(C)C3)C(=O)N(C)[C@@H](C(CC)CC)C(=O)N(C)[C@H](C(=O)N(C)C)CC(=O)N(C)[C@@H](COC)C(=O)N[C@@H]([C@@H](C)CC)C(=O)N(C3CC3)CC(=O)N(C)[C@H]3C/C=C\CCN(C3=O)[C@@H](CC3CCC(F)(F)CC3)C(=O)N(C)CC(=O)N[C@@H](CCc3ccc(Cl)c(Cl)c3)C(=O)N2C1 [PP2569] | A (a compound having 10 or more and less than 20 is denoted as A) | AA (a compound having 20 or more is denoted as AA) |
